Test results as given in patent US10927146B2, “Peptidyl ketoamides as inhibitors of rhomboid proteases” (priority 2017, dated 2021).
“Also recorded” adds a separate entry of the source.

What was measured:
[1] = target: model rhomboid protease GlpG (Escherichia coli, UniProt P09391); assay: In vitro inhibition of rhomboid protease GlpG (IC50 and Ki, as described in Ticha et al., 2017); assay type: biochemical, E. coli; conditions: for Ki: read-out: Ki Range
Source text: The in vivo activity of the compounds against GlpG according to the invention is in the low nanomolar range (FIG. 1), which is up to three orders of magnitude better than any other currently used rhomboid inhibitors. The co-crystal structures of these compounds with rhomboid protease (FIG. 2) show their mode of binding into the active site of rhomboid. Without wishing to be bound by such a theory, it appears that the ketoamide warhead covalently bonds to the catalytic serine, and extensively hydrogen bonds throughout the active site. The tail at the ketoamide nitrogen interacts with the S2′ pocket of rhomboid, engaging in a number of van der Waals contacts.

[2] = test system: Plasmodium falciparum rhomboid 4 (PfROM4); assay: PfROM4 cell culture assay: shedding of EBA175 in transfected HEK293ET cells; assay type: cell-based; conditions: HEK293ET cells transfected with PfROM4 and substrate EBA175; approximate, FIG. 3
Source text: (A) HEK293ET cells were transfected with plasmids encoding PfROM4 and its substrate EBA175, and the shedding of EBA175 by PfROM4 into the medium under various concentrations of Compound 16 was quantitated by near-infrared fluorescence detected Western blotting. (B) Dose-response analysis of PfROM4 inhibition by Compound 16.

model rhomboid protease GlpG, sequence (P09391 whole entry): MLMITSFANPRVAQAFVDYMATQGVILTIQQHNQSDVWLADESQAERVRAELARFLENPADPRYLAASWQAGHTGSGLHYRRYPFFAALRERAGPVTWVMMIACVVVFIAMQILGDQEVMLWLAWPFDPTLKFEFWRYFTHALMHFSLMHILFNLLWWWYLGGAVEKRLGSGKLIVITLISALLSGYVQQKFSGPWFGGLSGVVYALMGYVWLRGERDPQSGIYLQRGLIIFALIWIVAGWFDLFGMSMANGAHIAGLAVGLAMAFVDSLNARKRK

CC(=O)C(=O)[C@H](CCCNC(=N)N)NC(=O)[C@@H](NC(=O)[C@H](CCCNC(=N)N)NC(=O)[C@H](Cc1cnc[nH]1)NN[C@@H](C)C(=O)C(=O)NCc1cc(C)ccc1C)C(C)C [Compound 10]
Ki [1]: 10 to 100 nM

CC(=O)C(=O)[C@H](CCCNC(=N)N)NC(=O)[C@@H](NC(=O)[C@H](CCCNC(=N)N)NC(=O)[C@H](Cc1cnc[nH]1)NN[C@@H](C)C(=O)C(=O)NCCCCc1ccccc1)C(C)C [Compound 11]
Ki [1]: 10 to 100 nM

CC(=O)C(=O)[C@H](CCCNC(=N)N)NC(=O)[C@@H](NC(=O)[C@H](Cc1c[nH]c2ccccc12)NC(=O)[C@H](Cc1cnc[nH]1)NN[C@@H](C)C(=O)C(=O)NCCCCc1ccccc1)C(C)C [Compound 16]
IC50 of PfROM4 inhibition [2]: micro- to submicromolar range; also recorded: micromolar to submicromolar concentrations

CC(=O)C(=O)[C@@H](NC(=O)[C@H](CCCNC(=N)N)NC(=O)[C@H](Cc1cnc[nH]1)NN[C@@H](C)C(=O)C(=O)NCCc1ccccc1)C(C)C [Compound 12]
IC50 [1]: 550 nM

CC(=O)C(=O)[C@H](CCCNC(=N)N)NC(=O)[C@@H](NC(=O)[C@H](CCCNC(=N)N)NC(=O)[C@H](Cc1cnc[nH]1)NN[C@@H](C)C(=O)C(=O)NCCc1ccccc1)C(C)C [Compound 9]
Ki [1]: 10 to 100 nM
